Our source for the GI50 and TGI values is PubChem BioAssay (NCI).

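Cells were grown in 96-well plates and exposed to each compound for 48 hours at five concentrations; endpoints were interpolated linearly between bracketing concentrations, or set to the highest concentration if not reached. GI50 = concentration required for 50% inhibition of growth. TGI: total growth inhibition.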

Assay in all cases: growth of human tumour cells (NCI), 48 h
Assay [1] deals with HOP-62 NSCLC.
The test system of assay [2] is HS 578T breast.
The subject of assay [3] is MDA-MB-231 breast.
Assay [4] has as its system MOLT-4 leukemia.
Assay [5] deals with NCI-H522 lung.
The test system of assay [6] is OVCAR-4 ovarian.
Assay [7] has as its system OVCAR-5 ovarian.
Assay [8] deals with SK-OV-3 ovarian.
The test system of assay [9] is SNB-19 CNS.
Assay [10] has as its system U251 CNS.

Regarding `O=c1ccc(N=Nc2ccc([N+](=O)[O-])cc2)ccc1O`, the GI50 in assay [1] was 18.1 µM; in assay [2], 4.27 µM; in assay [3] it was 9.64 µM; in assay [4], 4.08 µM; in [5] it was 3.42 µM; in [6] it was 5.17 µM. Also, the GI50 in assay [7] was 30.1 µM; in assay [8], 28.4 µM; in [9], 4.14 µM; in assay [10], 4.46 µM. The TGI in [1] was over 100 µM; in assay [2] it was over 100 µM; in assay [3], 71.2 µM; in assay [4] it was over 100 µM; in assay [5], 28.3 µM; in assay [6], over 100 µM. The TGI in assay [7], in assay [8], in assay [9] and in [10] was over 100 µM each time.
`CCC[CH2][Sn]([CH2]CCC)([O]C(=O)c1cc(F)ccc1F)[O][Sn]([CH2]CCC)([CH2]CCC)[O]C(=O)c1cc(F)ccc1F`: the GI50 was 1.84 µM in assay [1]; 0.237 µM in assay [2]; 0.436 µM in assay [3]; 0.111 µM in assay [4]; 0.513 µM in [6]; 1.76 µM in assay [7]. Moreover, the GI50 in [8] was 1.03 µM; in assay [9], 0.667 µM; in assay [10], 0.175 µM. The TGI in [1] turned out to be 3.27 µM; in assay [2], 0.994 µM; in assay [3] it was 1.63 µM; in assay [5], 0.0658 µM; in assay [6], 1.73 µM; in assay [7] it was 3.16 µM. The TGI in assay [8] turned out to be 2.34 µM; in assay [9], 1.76 µM; in [10], 0.584 µM.
In the case of `Nc1ncnc2c1ncn2Cc1ccc(C23CC4CC(CC(C4)C2)C3)c(OCc2cc(F)c(F)cc2F)c1`, the GI50 in assay [1] is 6.98 µM; in assay [2], 52 µM; in assay [3], 6.39 µM; in assay [4], 2.69 µM; in assay [5] it was 7.86 µM; in assay [6] it was 90.8 µM. The GI50 in assay [7] is 68.6 µM; in assay [8], 87.7 µM; in assay [9], 29.5 µM; in assay [10] it was 5.59 µM. Further, the TGI in [1] is 18.9 µM; in assay [2] it was over 100 µM; in [3], over 100 µM; in assay [4], 7.97 µM; in assay [5] it was over 100 µM; in assay [6] it was over 100 µM. The TGI in assay [7] is over 100 µM; in assay [8], over 100 µM; in [9], over 100 µM; in [10], 42.8 µM.
Take `Nc1cc(C(=O)O)[nH]c(=O)n1`: the TGI in assay [1], in assay [2], in assay [3], in assay [4], in assay [5] and in assay [6] was over 100 µM in each case. Besides, the TGI in assay [7], in [8], in assay [9] and in [10] was over 100 µM each time.
`CCCCOc1ccc(NC(=O)n2nc(N)c3ccccc32)cc1`: the GI50 in [1] is 24.4 µM; in assay [2] it was 20.7 µM; in assay [3], 14 µM; in assay [4] it was 0.921 µM; in assay [5], 23.9 µM; in assay [6] it was 26.6 µM. The GI50 was 21.9 µM in [7], 49.2 µM in assay [8], 52 µM in assay [9] and 30.9 µM in assay [10]. The TGI in assay [1] was 60.6 µM; in [2], 53.4 µM; in [3], 41.5 µM; in assay [4], 34.8 µM; in [5], over 89.1 µM; in [6], over 100 µM. Also, the TGI is 68.4 µM in assay [7], over 100 µM in assay [8], over 100 µM in assay [9] and over 100 µM in [10].
Regarding `CC/C(=C(/c1ccc(OCCN(C)C)cc1)c1ccc(OC(=O)CCC(=O)c2c(C)[nH]c(/C=C3\N=C(c4ccc[nH]4)C=C3OC)c2C)cc1)c1ccccc1`, the GI50 in assay [1] is 1.49 µM; in assay [2], 1.15 µM; in [3], 0.441 µM; in [4], 0.974 µM; in [5], 1.88 µM; in [6], 1.49 µM. The GI50 in assay [7] is 5.75 µM; in assay [8] it was 6.99 µM; in assay [9] it was 5.49 µM; in [10] it was 1.46 µM. The TGI in assay [1] is 4.94 µM; in [2] it was 4.72 µM; in assay [3] it was 2.38 µM; in assay [4], 4.25 µM; in [5] it was 5.38 µM; in assay [6], 14.8 µM. Also, the TGI in [7] is 21.6 µM; in [8], 29.6 µM; in assay [9], 21.8 µM; in assay [10], 6.23 µM.
Take `COc1cc2c(cc1OCCCCCOc1cc3c(cc1OC)C(=O)N1CC(F)C[C@H]1C=N3)N=C[C@@H]1CC(F)CN1C2=O` (stereo partly drawn): the GI50 in assay [1] was under 0.01 µM; in assay [2], 0.0581 µM; in assay [3], 0.245 µM; in [4] it was under 0.01 µM; in assay [5], 0.0372 µM; in assay [6] it was 1.29 µM. The GI50 was 0.117 µM in assay [7], 0.327 µM in assay [8], 0.376 µM in [9] and 0.0135 µM in [10]. In addition, the TGI turned out to be 0.222 µM in assay [1]; 0.246 µM in assay [2]; 0.55 µM in assay [3]; 0.0663 µM in assay [4]; 0.204 µM in [5]; 24.1 µM in assay [6]. Moreover, the TGI in assay [7] is 3.25 µM; in assay [8], 46.5 µM; in [9], over 100 µM; in assay [10], 0.235 µM.
As to `c1ccc2c(c1)sc1c3cnccc3ccc21`, the TGI in assay [1], in assay [2], in assay [3], in [4], in assay [5] and in assay [6] was over 100 µM throughout. Also, the TGI in assay [7], in assay [8], in assay [9] and in assay [10] was over 100 µM in each case.
